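Each compound was tested at five concentrations against cells in 96-well plates for 48 hours. TGI marks complete inhibition of growth.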
What was measured:
Test in all cases: inhibition of tumour cell growth, NCI panel, 48 h
HS 578T breast = test system: HS 578T breast
CCRF-CEM leukemia = test system: CCRF-CEM leukemia
SW-620 colon = test system: SW-620 colon
SN12C renal = test system: SN12C renal
SK-MEL-2 melanoma = test system: SK-MEL-2 melanoma
OVCAR-3 ovarian = test system: OVCAR-3 ovarian
NCI-H460 lung = test system: NCI-H460 lung
MCF7 breast = test system: MCF7 breast
NCI-H23 lung = test system: NCI-H23 lung
HCC-2998 colon = test system: HCC-2998 colon

SMILES | TGI (HS 578T breast) [µM] | TGI (CCRF-CEM leukemia) [µM] | TGI (SW-620 colon) [µM] | TGI (SN12C renal) [µM] | TGI (SK-MEL-2 melanoma) [µM] | TGI (OVCAR-3 ovarian) [µM] | TGI (NCI-H460 lung) [µM] | TGI (MCF7 breast) [µM] | TGI (NCI-H23 lung) [µM] | TGI (HCC-2998 colon) [µM]
Cc1ccc(C2(N3CCCC3)OC(C)(C)c3cccc4cccc2c34)cc1 (centres undefined) | 31.8 | > 100 | 30.9 | 32.6 | 28.2 | 30.3 | 26.3 | 32.5 | 29.9 | –
N#Cc1ccc(/C=N/NC(=O)CSCC(=O)N/N=C/c2ccc(C#N)cc2)cc1 | > 100 | – | > 100 | > 100 | > 100 | > 100 | > 100 | > 100 | > 100 | > 100
NNC(=Nc1ccccc1)SCc1ccccc1 | – | > 100 | > 100 | > 100 | > 100 | > 100 | > 100 | > 100 | > 100 | > 100
O=c1[nH]c(=S)c2cc3c(=S)[nH]c(=O)n(CCC(c4ccccc4)(c4ccccc4)c4ccccc4)c3nc2n1CCC(c1ccccc1)(c1ccccc1)c1ccccc1 | – | 27.7 | – | > 100 | > 100 | > 100 | > 100 | > 100 | > 100 | > 100
CCOC(=O)CN=C1Nc2ccccc2C(=O)N2CSCC12 (centres undefined) | > 100 | > 100 | > 100 | > 100 | > 100 | > 100 | > 100 | > 100 | – | > 100
c1nncn1C12C3C4C5C3C1C5C42 (centres undefined) | > 100 | > 100 | > 100 | > 100 | > 100 | – | > 100 | > 100 | > 100 | > 100
CC(C)=NNc1cnnc2ccc([N+](=O)[O-])cc12 | > 100 | > 100 | > 100 | > 100 | > 100 | – | > 100 | > 100 | > 100 | –
CCn1nc(-c2ccccc2)c2c1N(C)c1ccccc1-n1c(-c3ccccc3)nnc1-2 | 52.4 | > 100 | 29.6 | 32.7 | 32.8 | – | 29.2 | 19.8 | 28.2 | 29.3
COc1ccc2c(c1)C1Oc3ccccc3CC1(O)CO2 (centres undefined) | – | > 100 | > 100 | > 100 | > 100 | > 100 | – | > 100 | > 100 | > 100
CN1c2ccccc2C(=O)NC12CCN(Cc1ccccc1)CC2 | > 100 | > 100 | > 100 | > 100 | – | – | > 100 | > 100 | > 100 | > 100
CCOC(=O)c1[nH]cnc1/N=N/N(C)N | > 100 | – | > 100 | > 100 | > 100 | > 100 | > 100 | > 100 | > 100 | > 100
CC1(C)CC(=O)C2=C(C1)NC(SCC(=O)O)=C(C#N)C2c1ccc(Br)cc1 (centres undefined) | > 100 | > 100 | > 100 | – | > 100 | > 100 | > 100 | > 100 | > 100 | > 100

Reference: PubChem BioAssay (NCI)
